This note sets out measurements from PubChem BioAssay (NCI).

Test systems include HCT-116 colon; COLO 205 colon; SNB-75 CNS; HCT-15 colon; U251 CNS; SK-MEL-28 melanoma; BT-549 breast; UACC-257 melanoma; HCC-2998 colon; NCI-H522 lung.
Common to all, as to assay: NCI-60 cell line screen, 48 h

Each structure is given as a SMILES string.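 Exposure lasted 48 hours, with cells grown in 96-well plates and compounds tested at five concentrations. At the GI50, growth is halved. TGI marks complete inhibition of growth.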

Turning to `COc1ccc(-n2c(CCC(=O)O)nc3c2C(=O)c2ccccc2C3=O)cc1`, the TGI in the assay on HCT-116 colon, with COLO 205 colon, with SNB-75 CNS, with HCT-15 colon, in the assay on U251 CNS and in the assay with SK-MEL-28 melanoma was greater than 100 µM in each case. For the same compound, the TGI in the assay with BT-549 breast, in the assay on UACC-257 melanoma, in the assay on HCC-2998 colon and in the assay with NCI-H522 lung was greater than 100 µM in each case.
Regarding `CC1=NN(c2nc(N)nc(NS(=O)(=O)c3cc(C)c(Cl)cc3S)n2)C(C)(C)C1`, the TGI in the assay on HCT-116 colon, with COLO 205 colon, in the assay with SNB-75 CNS, with HCT-15 colon, in the assay on U251 CNS and with SK-MEL-28 melanoma was greater than 10 µM each time. Further, the TGI with BT-549 breast, with UACC-257 melanoma, in the assay on HCC-2998 colon and in the assay on NCI-H522 lung was greater than 10 µM throughout.
On to `C[C@@H](CC(O)C(O)C(C)(C)O)C1CCC23CC12CCC1[C@@]2(C)CCC(O)C(C)(C)C2CC(OC2OC(CO)C(O)C(O)C2O)[C@]13C` (stereo partly drawn), for which the TGI in the assay on HCT-116 colon, with COLO 205 colon, with SNB-75 CNS, with HCT-15 colon, in the assay on U251 CNS and in the assay with SK-MEL-28 melanoma was greater than 10 µM each time. In addition, the TGI with BT-549 breast, with UACC-257 melanoma, in the assay on HCC-2998 colon and in the assay on NCI-H522 lung was greater than 10 µM in each case.
Consider `CC(C)C1CNC(=O)C2(C=NC(C(C)C)CNC(=O)C3(C=N1)CCCO3)CCCO2` (stereo not drawn), for which the TGI in the assay with HCT-116 colon, with COLO 205 colon, in the assay on SNB-75 CNS, in the assay with HCT-15 colon, in the assay with U251 CNS and in the assay on SK-MEL-28 melanoma was greater than 10 µM in each case. Besides, the TGI in the assay with BT-549 breast, in the assay with UACC-257 melanoma, in the assay with HCC-2998 colon and with NCI-H522 lung was greater than 10 µM throughout.
With `O[C@]12C=C(c3nccc4c3[nH]c3ccccc34)[C@@H]3CCN(CCCC/C=C\CC1)C[C@@]31CC3/C=C\CCCCN3[C@H]12` (stereo partly drawn), the TGI with HCT-116 colon is 0.647 µM; with COLO 205 colon, 1.13 µM; with SNB-75 CNS, 2.88 µM; with HCT-15 colon, 1.02 µM; in the assay with U251 CNS it was 1.79 µM; in the assay with SK-MEL-28 melanoma, 2.76 µM. Moreover, the TGI in the assay with BT-549 breast is 10.4 µM; in the assay on UACC-257 melanoma, 3.39 µM; with HCC-2998 colon, 0.936 µM; with NCI-H522 lung it was 2.21 µM.
With `O=C1Oc2ccccc2C1C/C(=N\Nc1ccccc1)c1ccccc1O` (stereo not drawn), the TGI in the assay on HCT-116 colon is greater than 100 µM; in the assay with COLO 205 colon it was 32.8 µM; in the assay with SNB-75 CNS, greater than 100 µM; with HCT-15 colon, greater than 100 µM; in the assay with U251 CNS, greater than 100 µM; in the assay on SK-MEL-28 melanoma it was greater than 100 µM. In addition, the TGI in the assay on BT-549 breast was greater than 100 µM; in the assay on UACC-257 melanoma it was 90.5 µM; in the assay on HCC-2998 colon, greater than 100 µM; in the assay on NCI-H522 lung, 98 µM.
Regarding `Cc1c(C)c2c(c(N)c1C#N)C(=O)N(O)C2=O`, the TGI in the assay on HCT-116 colon, in the assay on COLO 205 colon, with SNB-75 CNS, in the assay with HCT-15 colon, in the assay on U251 CNS and in the assay on SK-MEL-28 melanoma was greater than 100 µM throughout. The TGI in the assay on BT-549 breast, in the assay on UACC-257 melanoma, with HCC-2998 colon and with NCI-H522 lung was greater than 100 µM in each case.
On to `COC(=O)C(CC(C)C)NC(=O)C(NC(=O)c1ccc(-c2ccc(Cl)cc2Cl)o1)C(C)C` (stereo not drawn), for which the TGI is 29.2 µM in the assay on HCT-116 colon; 52.2 µM in the assay on COLO 205 colon; greater than 100 µM with SNB-75 CNS; 75.6 µM with HCT-15 colon; 46 µM in the assay with U251 CNS; greater than 100 µM with SK-MEL-28 melanoma. In addition, the TGI in the assay with BT-549 breast is greater than 100 µM; with UACC-257 melanoma, 64.9 µM; in the assay with HCC-2998 colon it was 31.7 µM; with NCI-H522 lung, 55.5 µM.
In the case of `CC(CSC(=N)N)C(N)=O` (stereo not drawn), the TGI with HCT-116 colon, with COLO 205 colon, in the assay with SNB-75 CNS, in the assay on HCT-15 colon, in the assay on U251 CNS and with SK-MEL-28 melanoma was greater than 100 µM each time. Also, the TGI in the assay with BT-549 breast, with UACC-257 melanoma, in the assay with HCC-2998 colon and with NCI-H522 lung was greater than 100 µM throughout.
`Cn1c(=O)c2[nH]c(N=O)nc2n(C)c1=O`: the TGI in the assay with HCT-116 colon, in the assay on COLO 205 colon, in the assay with SNB-75 CNS, in the assay with HCT-15 colon, with U251 CNS and in the assay on SK-MEL-28 melanoma was greater than 100 µM each time. The TGI with BT-549 breast, with UACC-257 melanoma, in the assay with HCC-2998 colon and in the assay with NCI-H522 lung was greater than 100 µM throughout.
Take `NS(=O)(=O)c1ccc(NC(=O)N/N=C/c2ccccc2O)cc1`: the TGI with HCT-116 colon, in the assay with COLO 205 colon, in the assay on SNB-75 CNS, with HCT-15 colon, in the assay with U251 CNS and in the assay on SK-MEL-28 melanoma was greater than 100 µM throughout. Besides, the TGI in the assay with BT-549 breast, with UACC-257 melanoma, with HCC-2998 colon and with NCI-H522 lung was greater than 100 µM throughout.
For the compound `COC1(CC[C@@H](C)COC2OC(CO)C(O)C(O)C2O)O[C@H]2C[C@H]3[C@@H]4CC=C5C[C@@H](OC6OC(CO)C(OC7OC(C)C(O)C(O)C7O)C(O)C6OC6OC(C)C(O)C(O)C6O)CC[C@]5(C)[C@H]4CC[C@]3(C)[C@H]2[C@@H]1C` (stereo partly drawn), the GI50 in the assay with HCT-116 colon was 1.96 µM; in the assay on COLO 205 colon, 2.99 µM; with HCT-15 colon, 1.72 µM; in the assay with U251 CNS it was 1.61 µM; in the assay on SK-MEL-28 melanoma it was 2.26 µM; in the assay on BT-549 breast, 2.58 µM. Besides, the GI50 in the assay with UACC-257 melanoma was 2.56 µM; in the assay on HCC-2998 colon, 2.97 µM. Further, the TGI is 10.4 µM in the assay on HCT-116 colon; 19.2 µM in the assay on COLO 205 colon; 3.37 µM in the assay with SNB-75 CNS; 3.66 µM with HCT-15 colon; 4.31 µM in the assay with U251 CNS; 5.53 µM in the assay on SK-MEL-28 melanoma. Moreover, the TGI in the assay on BT-549 breast is 6.81 µM; in the assay with UACC-257 melanoma it was 8.38 µM; in the assay with HCC-2998 colon, 8.5 µM; in the assay with NCI-H522 lung it was 4.23 µM.
As to `FC(F)(F)c1ccc(C2ON=C(c3ccccc3)N2C23CC4CC(CC(C4)C2)C3)cc1` (stereo not drawn), the TGI with HCT-116 colon, in the assay with COLO 205 colon, in the assay on SNB-75 CNS, in the assay with HCT-15 colon, with U251 CNS and in the assay on SK-MEL-28 melanoma was greater than 10 µM in each case. In addition, the TGI in the assay on BT-549 breast, with UACC-257 melanoma, in the assay on HCC-2998 colon and in the assay with NCI-H522 lung was greater than 10 µM each time.
Take `O=C(CNc1ccccn1)Nn1cnc2ccc(S(=O)(=O)Nc3ccccn3)cc2c1=O`: the TGI with HCT-116 colon, in the assay with COLO 205 colon, in the assay with SNB-75 CNS, with HCT-15 colon, with U251 CNS and in the assay with SK-MEL-28 melanoma was greater than 100 µM each time. Further, the TGI in the assay on BT-549 breast, in the assay with UACC-257 melanoma, in the assay on HCC-2998 colon and in the assay with NCI-H522 lung was greater than 100 µM in each case.
With `O=C(O)c1nc2ccccc2nc1Nc1ccc(Cl)c(Cl)c1`, the TGI was 76.7 µM with HCT-116 colon; 82.6 µM in the assay on COLO 205 colon; greater than 100 µM in the assay with SNB-75 CNS; 36.1 µM with HCT-15 colon; greater than 100 µM in the assay with U251 CNS; 75 µM in the assay on SK-MEL-28 melanoma. Besides, the TGI is 61.4 µM in the assay with BT-549 breast, greater than 100 µM in the assay on UACC-257 melanoma, 73.5 µM with HCC-2998 colon and 60.1 µM with NCI-H522 lung.
Turning to `COc1ccc(C(O)/C(=N/N)c2nc3ccc(Cl)cc3[nH]c2=O)cc1` (stereo not drawn), the TGI in the assay with HCT-116 colon, with COLO 205 colon, in the assay on SNB-75 CNS, in the assay with HCT-15 colon, in the assay on U251 CNS and in the assay with SK-MEL-28 melanoma was greater than 100 µM in each case. The TGI in the assay on BT-549 breast, in the assay on UACC-257 melanoma, with HCC-2998 colon and with NCI-H522 lung was greater than 100 µM in each case.
In the case of `O=C1N/C(=N\N=C\c2ccccc2)C(c2ccccc2)O1` (stereo not drawn), the TGI with HCT-116 colon was greater than 100 µM; in the assay on COLO 205 colon, greater than 100 µM; in the assay on SNB-75 CNS, 0.0124 µM; with HCT-15 colon it was greater than 100 µM; in the assay with U251 CNS, greater than 100 µM; with SK-MEL-28 melanoma, greater than 100 µM. The TGI in the assay with BT-549 breast, in the assay with UACC-257 melanoma, with HCC-2998 colon and with NCI-H522 lung was greater than 100 µM each time.
`C[C@]12C=CC(=O)C=C1CC[C@@H]1[C@@H]2CC[C@@]2(C)[C@H]1CC[C@]2(O)C(N)=O`: the TGI in the assay with HCT-116 colon, in the assay with COLO 205 colon, with SNB-75 CNS, in the assay with HCT-15 colon, in the assay on U251 CNS and in the assay on SK-MEL-28 melanoma was greater than 100 µM throughout. The TGI in the assay with BT-549 breast, in the assay on UACC-257 melanoma, with HCC-2998 colon and with NCI-H522 lung was greater than 100 µM throughout.
On to `COc1ccc(C2c3cc4c(cc3OC(NNc3ccccc3)C2C)OCO4)cc1` (stereo not drawn), for which the TGI was 43.2 µM in the assay on HCT-116 colon; 20.5 µM with COLO 205 colon; greater than 100 µM in the assay on SNB-75 CNS; greater than 100 µM in the assay on HCT-15 colon; greater than 100 µM with U251 CNS; greater than 100 µM in the assay on SK-MEL-28 melanoma. The TGI in the assay with BT-549 breast was found to be 76.1 µM; in the assay on UACC-257 melanoma, 86.3 µM; with HCC-2998 colon, 4.79 µM; with NCI-H522 lung, 94.6 µM.
Consider `CCOC(=O)C(NC(=O)OCc1ccccc1)C(=O)O` (stereo not drawn), for which the TGI with HCT-116 colon, with COLO 205 colon, with SNB-75 CNS, in the assay with HCT-15 colon, in the assay with U251 CNS and with SK-MEL-28 melanoma was greater than 100 µM in each case. The TGI in the assay on BT-549 breast, in the assay on UACC-257 melanoma, in the assay on HCC-2998 colon and in the assay on NCI-H522 lung was greater than 100 µM each time.
